Reference: US20210292340A1, “CELL NECROSIS INHIBITOR, PREPARATION METHOD THEREFOR AND USE THEREOF” (SHANGHAI INSTITUTE OF ORGANIC CHEMISTRY, CHINESE ACADEMY OF …, priority 2018, published 2021)

Experiments:
[1] = tested on: Jurkat (FADD−/−) cells; experiment: Inhibition of TNF-induced programmed Jurkat (FADD−/−) cell necrosis (Cell Titer-Glo); assay type: cell-based, human; settings: Homo sapiens, Jurkat, 20 h, TNF 10 ng/mL, intracellular ATP level, read-out: Cellular IC50 (M) Jurkat (FADD−/−)
How it was run: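 FADD-knockout Jurkat cells (5×10^5/mL) preincubated with compound, then given TNF (final 10 ng/mL) for 20 h at 37 °C. ATP measured by Cell Titer-Glo luminescence, normalised to untreated DMSO wells as 100% viability; IC50 from duplicate wells.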

[2] = molecular target: T1, human RIP1 (Homo sapiens, UniProt Q13546); experiment: Inhibition of ADP-Glo RIP1 kinase activity; assay type: biochemical
T1 construct: made in house; host or cells: Sf-9 insect cells
T1 sequence (Q13546 1-671): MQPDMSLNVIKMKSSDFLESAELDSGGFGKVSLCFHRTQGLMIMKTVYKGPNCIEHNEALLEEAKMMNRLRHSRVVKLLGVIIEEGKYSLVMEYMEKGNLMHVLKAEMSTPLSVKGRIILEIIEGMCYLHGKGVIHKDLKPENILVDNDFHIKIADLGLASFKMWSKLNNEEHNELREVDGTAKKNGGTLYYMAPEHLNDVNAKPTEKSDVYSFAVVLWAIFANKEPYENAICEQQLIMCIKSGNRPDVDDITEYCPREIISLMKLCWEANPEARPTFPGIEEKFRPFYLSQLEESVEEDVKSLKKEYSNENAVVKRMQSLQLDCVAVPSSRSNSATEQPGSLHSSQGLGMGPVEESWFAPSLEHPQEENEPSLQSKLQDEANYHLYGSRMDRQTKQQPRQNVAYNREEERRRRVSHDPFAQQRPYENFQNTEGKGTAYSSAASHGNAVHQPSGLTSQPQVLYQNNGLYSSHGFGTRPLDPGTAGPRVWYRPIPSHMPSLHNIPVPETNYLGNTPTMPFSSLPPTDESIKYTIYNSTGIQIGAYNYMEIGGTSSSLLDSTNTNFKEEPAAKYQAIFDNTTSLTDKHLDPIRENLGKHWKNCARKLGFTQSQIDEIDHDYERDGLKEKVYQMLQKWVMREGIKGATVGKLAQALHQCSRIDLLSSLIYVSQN
Description: The human RIP1 gene was transduced into Sf-9 insect cells, and the RIP1 protein was purified by Ni+ affinity chromatography and then by S-200 molecular sieve to remove the protein multimers. The obtained RIP1 protein was stored at −70° C., and the activity of the RIP1 protein in catalyzing autophosphorylation was detected by the ADP-Glo™ Kinase Activity Assay Kit (Promega) and the inhibitory activity of the drug against the RIP1 kinase was determined.
100 nL of the compound was transferred to a 384-well assay plate. Two replicate wells were set for each concentration of each drug.
The RIP1 enzyme solution and ATP solution were formulated in an assay buffer (containing 50 mM HEPES pH 7.5, 30 mM MgCl2, 50 mM NaCl, 1 mM DTT, 0.02% CHAPS, and 0.5 mg/ml BSA). Then, 5 μL of the RIP1 enzyme solution (final concentration 50 nM) was added to the assay plate and incubated at room temperature for 1 h. 5 μL of the ATP solution (final concentration 10 μM) was added to the assay plate, and incubate at room temperature for 4 h. Then 5 μL of ADP-Glo reagent was added to the assay plate, and incubated at room temperature for 60 min. 5 μL of a kinase assay solution was added to the assay plate, and incubated at room temperature for 30 min. After readout on Envision, the inhibition rate in each well was calculated from the full-activity well and the background well, and the Ki of the compound was calculated by GraphPad Prism 7 software (using the Morrision equation to fit the curve and calculate the Ki).

[3] = tested on: TNF-α induced shock; experiment: TNF-α induced shock test in mice; assay type: in vivo, C57BL/6 mice; settings: 10, 20 and 30 mg/kg, given 15 min before TNF-α; body temperature 0-6 h
Description: C57BL/6 mice were specially sterilized, and the animals are randomly grouped according to their body weight. 0.15 mg/mL TNF-α was prepared. Each mouse was injected with 200 μL TNF-alpha (30 μg per mouse) through the tail vein. 15 min before TNF-α induction, the drug was administered according to the body weight. At 0 h, 1 h, 2 h, 4 h, and 6 h, the body temperature of the mouse was detected by a small animal thermometer and recorded, and the state of the animal was observed during the test. After 6 h, the mice were euthanized with CO2. The experimental data was plotted by Graph Pad Prism 7, and expressed as mean±standard error (Mean±SEM). The area under the clinical scoring curve was analyzed by one-way ANOVA. p<0.05 is considered to have significant differences as compared to the control group.

[4] = Plasma concentration in mice after a single oral administration; assay type: in vivo; settings: single oral dose 10 mg/kg, 0.25-24 h
Description: An oral solution containing Compound RIP1-034 of the present application was freshly prepared with an aqueous solution containing 0.5% MC/0.25% Tween 80 on the day of administration. All animals were fasted overnight before administration, and were allowed to have free food intake 4 hours after administration. Each group included three mice, and each mouse was orally administered a single dose of 10 mg/kg on the day of the experiment. About 30 μL of whole blood was collected from the dorsal vein of the foot at 0.25, 0.5, 1, 2, 4, 6, 8, and 24 hours after administration, transferred to an anticoagulation tube containing heparin sodium and mixed thoroughly by inverting for several times. The collected blood sample was centrifuged at 4° C. and 4000 g for 5 min to collect plasma, and the plasma sample was dispensed into clean polyethylene microcentrifuge tubes, and then stored in a freezer at −75±15° C. until analysis. The actual administration volume was calculated based on the animal's body weight. All samples were analyzed by LC-MS/MS, and the concentration of the drug to be tested in the samples was determined by the standard curve method. The average plasma concentration in a group of three mice at each measurement time point after a single oral administration is shown in FIG. 3.

CN1C(=O)[C@@H](NC(=O)c2nnc(Cc3ccccc3)[nH]2)COc2cc3[nH]nc(Cl)c3cc21 [RIP1-034]
IC50 [1]: 8.9e-10 M | Ki [2]: 6.35 nM | decrease in body temperature due to systemic inflammatory response caused by TNF-α [3]: effectively inhibits the decrease in body temperature | plasma concentration after oral administration [4]: can reach a desirable plasma concentration
